From patent US20150292032A1, “TREATMENT OF CANCER BY TARGETING QUIESCENT CANCER CELLS” (FELICITEX THERAPEUTICS, INC., priority 2012, published 2015) come the findings set out here.

In assay [1] the test system is Panc-1 pancreatic cancer cells. Briefly: Quiescent (G0) cell fraction in serum-starved Panc-1 cells, two-parameter flow cytometry (Pyronin Y / Hoechst). In kind it is cell-based, human. Here is the method:
Panc-1 cells were forced into the quiescent state by serum deprivation for 48 hours. Panc-1 were cultured in DMEM+0.2% FBS for 48 hours. Next the cells were switched to fresh media DMEM+10% FBS (panel A) or to fresh media DMEM+1-% FBS supplemented with 0.25 μM DYRK1B inhibitor R (panel B). As a result of this serum deprivation, 42% of cells were identified in G0 quiescent state, as depicted in FIG. 5A. The percentage of quiescent cells was identified by flow cytometry FACS analysis.
Next, a DYRK1B small molecule inhibitor R, pictured in FIG. 7, was applied to inhibit the activity of DYRK1B kinase, and the percentage of quiescent cells was again analyzed. […] Upon inhibition of the activity of DYRK1B kinase, pancreatic cancer cells left the G0 quiescent state and progressed into cell cycle. While the number of quiescent cells had been reduced to 27% in the presence of DYRK1B inhibitor R, the number of cells in S-phase of cell cycle doubled (13%) as compared to control cells (6% in FIG. 5A). DYRK1B kinase activity was necessary for Panc-1 pancreatic cancer cells to accumulate in a quiescent state. The distribution of cellular population within the cell cycle (i.e. G0, G1, S and G2/M populations) was analyzed by two-parameter flow cytometry. Specifically, the incorporation of Pyronin Y and Hoechst staining correlated to RNA and DNA content distribution, respectively. (Ewton, D. Z., Hu, J., Vilenchik, M., Deng, X., Luk, K. C., Polonskaia, A., Hoffman, A. F., Zipf, K., Boylan, J. F., and Friedman, E. A. (2011) Inactivation of mirk/dyrk1b kinase targets quiescent pancreatic cancer cells, Molecular Cancer Therapeutics 10, 2104-2114).
(In general: In flow cytometry, cells or beads pass a laser one at a time.)

Assay [2] relates to colon cancer cell line SW620. Briefly: S-phase fraction of cycling log-phase SW620 cells, BrdU pulse / PI flow cytometry. In kind it is cell-based, human. Particulars: 1 μM, 24 hours. Here is the method:
An experiment was run to determine if inhibition of DYRK1B activity would facilitate cells escaping quiescence and result in surge of proliferating cells, utilizing small molecule inhibitor R. Cycling, log-phase cells from colon cancer cell line SW620 were treated with 1 μM of DYRK1B inhibitor R for 24 hours with 1 hour pulse of BrdU before analysis by flow cytometry after propidium iodine staining of DNA. 38% of the cellular population was detected in the S-phase of the cell cycle. Parallel cultures were treated with the small molecule DYRK1B inhibitor R for 24 hours followed by identical FACS analysis (1-hour BrdU pulse followed by specific mAB-FITC and PI staining).

With `COc1ncc2cc(C(=O)Nc3cc(C(=O)NCc4cccc(Cl)c4)ccc3Cl)c(=O)[nH]c2n1` [inhibitor R], in assay [1] (Panc-1, 48 h serum deprivation (DMEM+0.2% FBS), then fresh media with 0.25 μM inhibitor, FACS, control 42%), the “percentage of Panc-1 cells in G0 quiescent state” value was found to be 27%. Also, the “number of cells in S-phase of cell cycle” value in assay [1] (Panc-1, 48 h serum deprivation, then fresh media with 0.25 μM inhibitor, FACS, control 6%) was 13%. Besides, in assay [1] (Panc-1, presence of inhibitor), the “entry of additional Panc-1 cells into quiescence” value was “blocked additional Panc-1 cells from entering quiescence”. The “increase of fraction of S-phase cells compared to non-treated control” value in assay [2] came out at 29%. Also, the “S-phase population of cells” value in assay [2] (1 hour BrdU pulse, control 38%) was determined as 49%.
